One test deals with PDE3. Briefly: Radioenzymatic phosphodiesterase assay: PDE3 inhibition (selectivity). As to conditions: Table 2; 10 μM test compound; PDE3 of vascular smooth muscle.
For another test, the target named is T1, PDE2 (Bos taurus, UniProt P14099).
T1 sequence (P14099 1-921): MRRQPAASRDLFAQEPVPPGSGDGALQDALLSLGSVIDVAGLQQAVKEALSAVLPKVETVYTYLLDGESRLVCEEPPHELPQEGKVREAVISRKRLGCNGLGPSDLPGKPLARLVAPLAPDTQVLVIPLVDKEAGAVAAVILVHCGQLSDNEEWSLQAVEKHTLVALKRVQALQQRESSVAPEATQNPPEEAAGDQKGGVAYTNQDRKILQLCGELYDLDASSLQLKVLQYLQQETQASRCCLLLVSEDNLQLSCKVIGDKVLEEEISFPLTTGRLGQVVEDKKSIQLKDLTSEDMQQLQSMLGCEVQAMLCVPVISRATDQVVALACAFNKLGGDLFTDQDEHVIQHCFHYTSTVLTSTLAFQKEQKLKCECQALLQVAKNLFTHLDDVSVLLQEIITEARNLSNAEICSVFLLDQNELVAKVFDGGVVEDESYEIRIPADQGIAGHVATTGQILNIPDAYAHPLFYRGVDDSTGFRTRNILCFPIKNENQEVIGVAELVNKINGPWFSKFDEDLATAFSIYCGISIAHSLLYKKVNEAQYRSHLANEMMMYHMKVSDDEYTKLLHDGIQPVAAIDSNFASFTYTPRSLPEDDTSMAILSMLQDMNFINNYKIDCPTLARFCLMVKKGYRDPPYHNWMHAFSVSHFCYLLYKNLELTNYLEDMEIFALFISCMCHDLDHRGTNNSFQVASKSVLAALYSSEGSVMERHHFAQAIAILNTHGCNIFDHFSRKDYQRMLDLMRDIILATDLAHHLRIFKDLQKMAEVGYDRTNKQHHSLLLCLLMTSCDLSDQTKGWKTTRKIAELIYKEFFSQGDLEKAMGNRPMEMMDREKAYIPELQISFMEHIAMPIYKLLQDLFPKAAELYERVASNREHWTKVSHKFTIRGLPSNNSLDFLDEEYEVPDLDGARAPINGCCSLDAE
Kind of test: Radioenzymatic phosphodiesterase assay: PDE2 inhibition. In kind it is biochemical, bovine. To be noted: read-out: PDE2 percentage of inhibition at 10 μM. As for the experimental part: Nucleoside radioactivity was determined by liquid scintillation.

In another test the test system is PDE4. Briefly: Radioenzymatic phosphodiesterase assay: PDE4 inhibition (selectivity). As to conditions: Table 2, PDE4 of vascular smooth muscle; for PDE4 percentage of inhibition at 10 μM: 10 μM test compound.

Like-named read-outs stand apart in the source and are kept apart here.

Protocol for PDE3: (§1) 3 g of tunica media from bovine aorta was cut in small piece and homogenized in a glass potter with 7 volumes/weight of buffer A containing protease inhibitors cocktails (20 mM Tris-HCl, 0.25 M saccharose, 2 mM magnesium acetate, 1 mM dithiothreitol, 5 mM EGTA, 2000 U/ml aprotinine, 10 mg/l leupeptine, 10 mg/l of soybean chemotrypsin inhibitor). The homogenate was centrifuged at 875000 g for 1 h and the surpernant was then transferred in DEAE-Sephacel (15×1.6 cm). The column was equilibrated beforehand with a buffer B (buffer A without saccharose, d'EGTA and protease inhibitors). […] Fractions were aliquoted and stored at −80° C. until further use.
(§2) The monophosphated adenosine or guanosine released by the hydrolysis of tritiated cyclic nucleotides was transformed into tritiated adenosine or guanosine by excess of nucleotidase. The obtained nucleoside was separated from nucleotides by anion exchange chromatography. Nucleoside radioactivity was determined by liquid scintillation.
(§3) The phosphodiesterase inhibitory activity of compounds was evaluated on other isoforms of phosphodiesterases such as PDE3, and PDE4 of vascular smooth muscle.
Protocol for PDE4: as §1, §2, §3

One may read the inhibition as the share of the control response that was lost under treatment. As to `COc1ccc(-c2cc3c(cc2OC)N(C)C(=O)CN=C3c2cccc(C(N)=O)c2)cc1` [Example 22, 3-[8-Methoxy-7-(4-methoxy-phenyl)-1-methyl-2-oxo-2,3-dihydro-1H-benzo[e][1,4]diazepin-5-yl]-benzamide], in the test with PDE3, the “PDE3 percentage of inhibition at 10 μM” value is given as 22%. Moreover, on PDE2 (Table 1, 10 μM test compound), the inhibition at 10 µM stood at 99%. Further, the “PDE4 percentage of inhibition at 10 μM” value in the test with PDE4 was 50%.

On to `COc1cccc(OC)c1-c1ccc2c(c1)C(c1ccc(F)cc1)=NCC(=O)N2C` [Example 100, 7-(2,6-Dimethoxy-phenyl)-5-(4-fluoro-phenyl)-1-methyl-1,3-dihydro-benzo[e][1,4]diazepin-2-one], for which, in the test on PDE3, the “PDE3 percentage of inhibition at 10 μM” value was 0%. Moreover, the inhibition at 10 µM on PDE2 came to 96%. Further, the “PDE4 percentage of inhibition at 10 μM” value in the test with PDE4 was 77%.

On to `COc1cccc(OC)c1-c1ccc2c(c1)C(c1cccc(C(N)=O)c1)=NCC(=O)N2C` [Example 32, 3-[7-(2,6-Dimethoxy-phenyl)-1-methyl-2-oxo-2,3-dihydro-1H-benzo[e][1,4]diazepin-5-yl]-benzamide], for which, in the test with PDE3, the “PDE3 percentage of inhibition at 10 μM” value turned out to be 0%. Further, the inhibition at 10 µM on PDE2 (Table 1, 10 μM test compound) amounted to 100%. In addition, the “PDE4 percentage of inhibition at 10 μM” value with PDE4 came to 27%.

Consider `COc1cc2c(cc1-c1ccccc1Oc1ccccc1)C(c1cccc(C(N)=O)c1)=NCC(=O)N2C` [Example 93, 3-[8-Methoxy-1-methyl-2-oxo-7-(2-phenoxy-phenyl)-2,3-dihydro-1H-benzo[e][1,4]diazepin-5-yl]-benzamide], for which the “PDE3 percentage of inhibition at 10 μM” value in the test with PDE3 worked out at 72%. Besides, the inhibition at 10 µM on PDE2 (Table 1, 10 μM test compound) amounted to 98%. Further, the “PDE4 percentage of inhibition at 10 μM” value with PDE4 is recorded as 56%.

A word on the IC50: it is the concentration needed to halve the response being measured. Take `COc1ccc(C2=NCC(=O)N(C)c3cc(OC)c(-c4c(OC)cccc4OC)cc32)cc1` [Example 109, 7-(2,6-Dimethoxy-phenyl)-8-methoxy-5-(4-methoxy-phenyl)-1-methyl-1,3-dihydro-benzo[e][1,4]diazepin-2-one]: in the test with PDE3, the “PDE3 percentage of inhibition at 10 μM” value worked out at 37%. Further, at PDE2 (Table 1, 10 μM test compound), the inhibition at 10 µM amounted to 99%. Further, the “PDE4 percentage of inhibition at 10 μM” value in the test on PDE4 came to 90%. In addition, on PDE4 (read-out: PDE4 IC50), the half-maximal inhibitory concentration (IC50) is 1000 nM.

Consider `COc1cccc(OC)c1-c1ccc2c(c1)C(c1cccc(C)c1)=NCC(=O)N2C` [Example 115, 7-(2,6-Dimethoxy-phenyl)-1-methyl-5-m-tolyl-1,3-dihydro-benzo[e][1,4]diazepin-2-one], for which the “PDE3 percentage of inhibition at 10 μM” value in the test with PDE3 is reported as 3%. Further, the inhibition at 10 µM at PDE2 was 96%. Further, the “PDE4 percentage of inhibition at 10 μM” value in the test on PDE4 is reported as 42%.

In the case of `COc1cc2c(cc1-c1c(OC)cccc1OC)C(c1cccc(C(N)=O)c1)=NCC(=O)N2C` [Example 92, 3-[7-(2,6-Dimethoxy-phenyl)-8-methoxy-1-methyl-2-oxo-2,3-dihydro-1H-benzo[e][1,4]diazepin-5-yl]-benzamide], the “PDE3 percentage of inhibition at 10 μM” value in the test on PDE3 is 52%. The inhibition at 10 µM on PDE2 (Table 1, 10 μM test compound) stood at 97%. Also, the “PDE4 percentage of inhibition at 10 μM” value in the test with PDE4 came out at 23%.

For `COc1ccc(OC)c(-c2ccc3c(c2)C(c2cccc(C(N)=O)c2)=NCC(=O)N3C)c1` [Example 31, 3-[7-(2,5-Dimethoxy-phenyl)-1-methyl-2-oxo-2,3-dihydro-1H-benzo[e][1,4]diazepin-5-yl]-benzamide], the “PDE3 percentage of inhibition at 10 μM” value with PDE3 amounted to 0%. For the same molecule, at PDE2 (Table 1, 10 μM test compound), the inhibition at 10 µM worked out at 99%. Besides, in the test with PDE4, the “PDE4 percentage of inhibition at 10 μM” value was 25%.

`COc1cc2c(cc1-c1ccccc1Cl)C(c1cccc(C(N)=O)c1)=NCC(=O)N2C` [Example 23, 3-[7-(2-Chloro-phenyl)-8-methoxy-1-methyl-2-oxo-2,3-dihydro-1H-benzo[e][1,4]diazepin-5-yl]-benzamide]: in the test with PDE3, the “PDE3 percentage of inhibition at 10 μM” value came to 25%. At PDE2 (Table 1, 10 μM test compound), the inhibition at 10 µM worked out at 95%. Also, the “PDE4 percentage of inhibition at 10 μM” value in the test on PDE4 turned out to be 20%.

As to `COc1ccc(C2=NCC(=O)N(C)c3ccc(-c4c(OC)cccc4OC)cc32)cc1` [Example 75, 7-(2,6-Dimethoxy-phenyl)-5-(4-methoxy-phenyl)-1-methyl-1,3-dihydro-benzo[e][1,4]diazepin-2-one], the “PDE3 percentage of inhibition at 10 μM” value in the test with PDE3 is on record as 4%. For the same molecule, the inhibition at 10 µM on PDE2 (Table 1, 10 μM test compound) was found to be 99%. In the test on PDE4, the “PDE4 percentage of inhibition at 10 μM” value was 78%.

As for `COc1ccccc1-c1cc2c(cc1OC)N(C)C(=O)CN=C2c1cccc(C(N)=O)c1` [Example 21, 3-[8-Methoxy-7-(2-methoxy-phenyl)-1-methyl-2-oxo-2,3-dihydro-1H-benzo[e][1,4]diazepin-5-yl]-benzamide], in the test with PDE3, the “PDE3 percentage of inhibition at 10 μM” value came to 9%. Moreover, the inhibition at 10 µM on PDE2 (Table 1, 10 μM test compound) turned out to be 98%. In addition, the “PDE4 percentage of inhibition at 10 μM” value with PDE4 is 18%.

As for `COc1cc2c(cc1-c1ccccc1)C(c1ccccc1Br)=NCC(=O)N2C` [Example 104, 5-(2-Bromo-phenyl)-8-methoxy-1-methyl-7-phenyl-1,3-dihydro-benzo[e][1,4]diazepin-2-one], the inhibition at 10 µM on PDE2 (Table 1, 10 μM test compound) came to 71%.

In the case of `CCCN1C(=O)CN=C(c2cccc(C(N)=O)c2)c2cc(-c3ccccc3OC)c(OC)cc21` [Example 45, 3-[8-Methoxy-7-(2-methoxy-phenyl)-2-oxo-1-propyl-2,3-dihydro-1H-benzo[e][1,4]diazepin-5-yl]-benzamide], the inhibition at 10 µM at PDE2 worked out at 48%.

On to `COc1ccccc1-c1cc2c(cc1OC)N(C)C(=O)CN=C2c1cccc(C#N)c1` [Example 3, 3-[8-Methoxy-7-(2-methoxy-phenyl)-1-methyl-2-oxo-2,3-dihydro-1H-benzo[e][1,4]diazepin-5-yl]-benzonitrile], for which, on PDE2, the inhibition at 10 µM is 100%.

With `COc1ccc(OC)c(-c2ccc3c(c2)C(c2cccc(C#N)c2)=NCC(=O)N3C)c1` [Example 15, 3-[7-(2,5-Dimethoxy-phenyl)-1-methyl-2-oxo-2,3-dihydro-1H-benzo[e][1,4]diazepin-5-yl]-benzonitrile], at PDE2, the inhibition at 10 µM was found to be 98%.

For `COc1cc2c(cc1-c1ccccc1OC(C)C)C(c1cccc(C#N)c1)=NCC(=O)N2C` [Example 63, 3-[7-(2-isopropoxy-phenyl)-8-methoxy-1-methyl-2-oxo-2,3-dihydro-1H-benzo[e][1,4]diazepin-5-yl]-benzonitrile], at PDE2, the inhibition at 10 µM came out at 98%.

For `COc1cc2c(cc1-c1ccccc1OC(C)C)C(c1cccc(C(N)=O)c1)=NCC(=O)N2C` [Example 78, 3-[7-(2-Isopropoxy-phenyl)-8-methoxy-1-methyl-2-oxo-2,3-dihydro-1H-benzo[e][1,4]diazepin-5-yl]-benzamide], the inhibition at 10 µM at PDE2 came out at 97%.

Regarding `COc1cc2c(cc1-c1ccccc1)C(c1ccc(Br)cc1)=NCC(=O)N2C` [Example 113, 5-(4-Bromo-phenyl)-8-methoxy-1-methyl-7-phenyl-1,3-dihydro-benzo[e][1,4]diazepin-2-one], the inhibition at 10 µM at PDE2 (Table 1, 10 μM test compound) turned out to be 94%.

Regarding `CN1C(=O)CN=C(c2ccccc2Cl)c2cc(-c3ccccc3)ccc21` [Example 41, 5-(2-Chloro-phenyl)-1-methyl-7-phenyl-1,3-dihydro-benzo[e][1,4]diazepin-2-one], the inhibition at 10 µM at PDE2 (Table 1, 10 μM test compound) came out at 34%.

As to `COc1ccccc1-c1ccc2c(c1)C(c1cccc(C(N)=O)c1)=NCC(=O)N2C` [Example 28, 3-[7-(2-methoxy-phenyl)-1-methyl-2-oxo-2,3-dihydro-1H-benzo[e][1,4]diazepin-5-yl]-benzamide], the inhibition at 10 µM on PDE2 (Table 1, 10 μM test compound) was found to be 97%.

As for `CN1C(=O)CN=C(c2ccc(Cl)c(Cl)c2)c2cc(-c3ccccc3)ccc21` [Example 56, 5-(3,4-Dichloro-phenyl)-1-methyl-7-phenyl-1,3-dihydro-benzo[e][1,4]diazepin-2-one], on PDE2 (Table 1, 10 μM test compound), the inhibition at 10 µM was found to be 70%.

In the case of `COc1cccc(Cl)c1-c1ccc2c(c1)C(c1cccc(C#N)c1)=NCC(=O)N2C` [Example 82, 3-[7-(2-Chloro,6-methoxy-phenyl)-1-methyl-2-oxo-2,3-dihydro-1H-benzo[e][1,4]diazepin-5-yl]-benzonitrile], on PDE2 (Table 1, 10 μM test compound), the inhibition at 10 µM is 92%.

`CCCCC#Cc1cccc(C2=NCC(=O)N(C)c3cc(OC)c(-c4ccccc4)cc32)c1` [Example 66, 5-(3-Hex-1-ynyl-phenyl)-8-methoxy-1-methyl-7-phenyl-1,3-dihydro-benzo[e][1,4]diazepin-2-one]: the inhibition at 10 µM on PDE2 was found to be 86%.

As for `CN1C(=O)CN=C(c2cccc([N+](=O)[O-])c2)c2cc(-c3ccccc3)ccc21` [Example 65, 1-Methyl-5-(3-nitro-phenyl)-7-phenyl-1,3-dihydro-benzo[e][1,4]diazepin-2-one], at PDE2 (Table 1, 10 μM test compound), the inhibition at 10 µM is 78%.

Source of the values: patent US7410963B2, “Benzo-1,4-diazepin-2-one derivatives as phosphodiesterase PDE2 inhibitors, preparation and therapeutic use thereof” (VIA Pharmaceuticals, Inc., priority 2003, dated 2008).
